Assay results: patent publication US12570698B2, “Stabilized peptides for covalent binding to target protein” (Dana-Farber Cancer Institute, Inc., priority 2015, dated 2026)
Bridge positions count the residues as written; N and C are the ends. Square brackets hold non-standard residues; d marks the D form. Ends that are not written are not given here. S5 = C=CCCC[C@](C)(N)C(=O)O

How the values were obtained:
[1] = system: A375P cells; assay: Cell viability (CellTiter-Glo); assay type: cell-based, human; settings: 40 μM, over time
Description: We confirmed by LDH release assay that BIM SAHBs had no membranolytic effect on the cells (FIG. 16B). The observed cytotoxicity was instead consistent with mitochondrial apoptosis induction, as reflected by time-responsive caspase 3/7 activation (FIG. 16C) and mitochondrial cytochrome c release (FIG. 16D).
(§1) Cell Viability, LDH Release, and Caspase-3/7 Activation Assays: Cancer cells were cultured using their standard culture media containing 10% FBS and penicillin/streptomycin (A375P: DMEM; SK-MEL-2, SK-MEL-28 and MCF-7: EMEM; A549, H929: RPMI). […] Cell viability and caspase 3/7 activation was measured using CellTiter-Glo and Caspase-Glo 3/7 chemiluminescence reagents (Promega), respectively, and luminescence detected by a microplate reader (Spectramax M5, Molecular Devices). LDH release was quantified after 30 min peptide incubation by plate centrifugation at 1500 rpm for 5 min at 4° C., transfer of 100 μL cell culture media to a clear plate (Corning), incubation with 100 μL LDH reagent (Roche) for 30 min while shaking, and measurement of absorbance at 490 nm on a Spectramax M5 microplate reader.

[2] = system: A549; assay: Cytotoxicity and caspase 3/7 activation; assay type: cell-based; settings: non-melanoma line; data not shown
Description: as §1

[3] = system: H929; assay: Cytotoxicity and caspase 3/7 activation; assay type: cell-based; settings: non-melanoma line; data not shown
Description: as §1

[4] = system: MCF7; assay: Cytotoxicity and caspase 3/7 activation; assay type: cell-based; settings: non-melanoma line; data not shown
Description: as §1

[5] = system: SK-MEL-28; assay: Cytotoxicity and caspase 3/7 activation; assay type: cell-based; settings: BFL-1 expressing melanoma line; data not shown
Description: as §1

[6] = system: SK-MEL-2; assay: Cytotoxicity and caspase 3/7 activation; assay type: cell-based; settings: BFL-1 expressing melanoma line; data not shown
Description: as §1

[7] = biological target: T1, Bfl-1 (Homo sapiens, UniProt Q16548); assay: Bfl-1: Warhead SAHB conjugation assay; assay type: binding; settings: warhead SAHBs, reducing conditions
T1 sequence (Q16548 1-175): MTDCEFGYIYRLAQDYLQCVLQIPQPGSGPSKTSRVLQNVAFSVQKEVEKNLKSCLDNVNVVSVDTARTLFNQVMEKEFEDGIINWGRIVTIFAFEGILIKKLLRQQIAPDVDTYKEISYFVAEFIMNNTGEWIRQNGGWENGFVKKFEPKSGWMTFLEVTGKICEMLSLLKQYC
Description: Various warhead SAHBs were tested in conjugation assays with Bfl-1. For this series of peptides the warhead at position J was selected from those depicted below.
10 μM Bfl-1 was reduced with DTT, then incubated with 3:1 molar ratio of warhead SAHB. Samples were then combined with loading dye, run on a 12% Bis-Tris SDS-PAGE, and stained with Coomassie. The same setup was used for all antiapoptotic proteins tested.

[8] = biological target: T2, HA-BFL-1ΔC C4S/C19S (Homo sapiens, UniProt Q16548, C19S/C4S); assay: Competition with tBID in 293T lysates (immunoprecipitation); assay type: binding; settings: 5 μM biotinylated peptide, 0.25 μM tBID, 6 h RT
T2 construct: BFL-1ΔC (aa 1-153); expressed in transfected cells; host or cells: 293T cells, pCMV plasmid, transient
T2 sequence (Q16548 1-153 C4S/C19S): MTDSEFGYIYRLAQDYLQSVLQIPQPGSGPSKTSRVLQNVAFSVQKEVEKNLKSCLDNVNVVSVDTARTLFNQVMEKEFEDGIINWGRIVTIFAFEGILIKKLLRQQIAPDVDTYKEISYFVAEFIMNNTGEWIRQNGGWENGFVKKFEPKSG
Description: Protein concentration of the soluble fraction was measured using a BCA kit according to manufacturer's instructions (Thermo Scientific). […] After 24 h, cells were trypsinized, washed with PBS, lysed in 1% CHAPS buffer, and the supernatant collected for protein concentration determination by BCA kit. […] Cells were harvested and lysed as above, and incubated overnight with anti-HA agarose beads (Pierce). The beads were washed 3 times with lysis buffer, eluted by boiling in LDS buffer, and subjected to western analysis with HA and biotin antibodies. […] Biotin capture was accomplished by incubating the mixture with high-capacity SA agarose (Thermo Scientific) for 2 h at 4° C., followed by centrifugation and washing the pelleted beads with 3×1 mL lysis buffer.

[9] = biological target: T3, FLAG-MCL-1 (Homo sapiens, UniProt Q07820); assay: as above; assay type: binding; settings: 5 μM biotinylated peptide, 0.25 μM tBID, 6 h RT
T3 construct: expressed in transfected cells; host or cells: 293T cells, p3×FLAG-CMV-10 vector, transient
Description: 293T cells were maintained in DMEM containing 10% FBS and penicillin/streptomycin, and transfections performed with 2 μg pCMV plasmid containing HA-BFL-1ΔC C4S/C19S using X-tremeGENE 9 (Roche). For lysate experiments, cells were trypsinized 24 hours post-transfection, washed with PBS, and lysed by incubation with 1% CHAPS lysis buffer (150 mM NaCl, 50 mM Tris pH 7.4, 100 mM DTT). Protein concentration of the soluble fraction was measured using a BCA kit according to manufacturer's instructions (Thermo Scientific). […] Samples were then boiled in LDS buffer and subjected to western analysis using 1:1000 dilutions of HA (Sigma-Aldrich, #12CA5) and biotin (Abcam, #53494) antibodies. To evaluate the capacity of biotinylated SAHBs to compete with tBID for interactions with BFL-1 and MCL-1, 293T cells were transfected with either HA-BFL-1ΔC C4S/C19S or FLAG-MCL-1 in the p3×FLAG-CMV-10 vector (Sigma) as above. After 24 h, cells were trypsinized, washed with PBS, lysed in 1% CHAPS buffer, and the supernatant collected for protein concentration determination by BCA kit. […] The mixtures were then subjected to HA or FLAG (Sigma-Aldrich, F7425) immunoprecipitation, followed by western analysis using 1:1000 dilutions of HA, FLAG, biotin, and BID (Santa Cruz sc-11423) antibodies. […] Cells were harvested and lysed as above, and incubated overnight with anti-HA agarose beads (Pierce). […]

[10] = biological target: T4, MCL-1 (Homo sapiens, UniProt Q07820); assay: SA pull-down from A375P lysates, MCL-1 western; assay type: binding; settings: biotinylated SAHBs
T4 construct: we incubated A375P lysates with the corresponding biotinylated BIM SAHBs; endogenous in cells; host or cells: A375P melanoma cell lysate

[11] = biological target: T1, Bfl-1; assay: Competitive binding assay after pre-forming the Bfl-1:NOXA disulfide bond; settings: Bfl-1:NOXA disulfide bond pre-formed
Description: The functional impact of the Bfl-1:NOXA disulfide bond formation was evaluated using competitive binding assays and liposomal release assays.

T3 sequence (Q07820 whole entry): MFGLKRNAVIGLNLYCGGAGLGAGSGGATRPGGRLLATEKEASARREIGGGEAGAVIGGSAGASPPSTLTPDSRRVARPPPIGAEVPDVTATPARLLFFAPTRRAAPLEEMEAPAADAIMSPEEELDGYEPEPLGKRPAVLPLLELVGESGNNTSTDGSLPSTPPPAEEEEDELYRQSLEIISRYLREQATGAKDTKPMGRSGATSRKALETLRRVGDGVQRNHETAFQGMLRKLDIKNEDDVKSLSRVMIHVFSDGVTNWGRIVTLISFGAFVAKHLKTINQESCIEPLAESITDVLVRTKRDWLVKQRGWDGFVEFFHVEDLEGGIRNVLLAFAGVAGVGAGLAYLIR

C=CC(=O)N1CCC[C@@H](C(=O)N[C@H](C(=O)N[C@@H](C)C(=O)N[C@@H](CCC(N)=O)C(=O)N[C@@H](CCC(=O)O)C(=O)N[C@@H](CC(C)C)C(=O)N[C@@H](CCCNC(=N)N)C(=O)N[C@@]2(C)CCCC=CCCC[C@@](C)(C(=O)N[C@@H](Cc3ccccc3)C(=O)N[C@@H](CC(N)=O)C(=O)N[C@@H](C)C(=O)N[C@@H](Cc3ccc(O)cc3)C(=O)N[C@@H](Cc3ccc(O)cc3)C(=O)N[C@@H](C)C(=O)N[C@@H](CCCNC(=N)N)C(=O)N[C@@H](CCCNC(=N)N)C(N)=O)NC(=O)[C@H](CC(=O)O)NC(=O)CNC(=O)[C@H]([C@@H](C)CC)NC2=O)[C@@H](C)CC)C1 [BIM SAHBA-3] was tested, and the “cytotoxicity compared to BIM SAHBA1” value [1] was “significant enhancement in cytotoxicity over time”, the “enhancement in cytotoxicity and caspase 3/7 activation” value (shortened to “enhancement”) [2] was “no evidence of this phenomenon” and the “enhancement” value [3] was “no evidence of this phenomenon”. The “enhancement” value [4] was “no evidence of this phenomenon”, the “enhancement” value [5] was “comparative enhancement in cytotoxicity and caspase 3/7 activation” and the “enhancement” value [6] was “comparative enhancement in cytotoxicity and caspase 3/7 activation”.

For O=C(O)[C@H]1CCCCN1 [D-homoproline], the covalent binding efficiency [7] was “less efficient”.

For O=C(O)[C@@H]1CCCCN1 [L-homoproline], the covalent binding efficiency [7] was “less efficient”.

With CN(C)C/C=C/C(=O)O [trans-4-dimethylaminocrotonic acid] the covalent binding efficiency [7] was “less efficient”.

With “BIM SAHBA: BIM SAHBA (aa 147-166), corresponding construct lacking the acrylamide-based warhead” the “competition with tBID for HA-BFL-1 binding” value [8] was “incapable of competing with tBID for HA-BFL-1 binding”, the “competition with tBID for FLAG-MCL-1” value [9] was “equally effective at competing with tBID” and the “binding to MCL-1” value [10] was “equivalent binding to anti-apoptotic MCL-1”.

In the case of “NOXA SAHBA C25S: NOXA SAHBA with C25S mutation; SEQ ID NO: 128 (AELEVESATQLR[S5]FGD[S5]LNFRQKLL; staple 13-17; not fully specified)”, the “availability of the Bfl-1 binding pocket to another FITC BH3 domain” value [11] is reported as “abrogated these inhibitory effects”.
